Laboratory results published in US5437980A, “Phenanthridium dye staining of nucleic acids in living cells” (Molecular Probes, Inc., priority 1993, dated 1995).
“Also recorded” adds a separate entry of the source.

Experiments:
mushroom spores = test: Staining of mushroom spores by fluorescence microscopy (Example 4); format: cell-based, agaric; details: 10-20 μM dye, 30 min, room temperature
Experimental: Spores are rinsed from the gills on the underside of the cap of an agaric using a stream of distilled water. The spores are concentrated by centrifugation for 30 sec at 10,000 rpm in a microcentrifuge then a minimal volume of a 10-20 μM solution of the 5-DAPP/LIVE dye in distilled water is added. The suspension is incubated with the dye for 30 min at room temperature then a 15 μL aliquot of the suspension is mounted on between a coverglass and the slide for viewing in the presence of the dye. The cellular fluorescence is observed on a Zeiss Axioplan fluorescence microscope using fluorescein (long:pass emission) or rhodamine filter sets.

Saccharomyces = test: Staining of yeast (Example 5); format: cell-based; details: 10 μM dye, 30 min, 37° C.
Experimental: Yeast cells are washed by centrifugation and then resuspended in a solution of 2% glucose and 10 mM Na-HEPES, pH 7.4 to a cell density of between 5×10^5 and 2×10^6 cells/mL optical density at 410 nm (previously calibrated with YPD agar plate colony counts). Sufficient 10 mM stock solution of the 5-DAPP/LIVE dye in DMSO is added to effect a final concentration of 10 μM of the dye in the medium. The suspension is incubated for 30 min at 37° C. then 15 μL are placed between a coverglass and the microscope slide. The cellular fluorescence is observed using fluorescein (long-pass emission) or rhodamine filter sets.

[1] = test system: epidermal tissue of the bulb, Alium spp.; test: Staining of plant cell tissue (Example 6); format: cell-based; details: 10 μM dye, 30 min, room temperature
Experimental: A small section of tissue from the bulb is removed with a razor blade. 0.5 mL of a 10 μM solution of the 5-DAPP/LIVE dye in distilled water is dispensed into a small glass dish. The epidermal tissue is cut into sections and placed in the dye solution. The tissue is stained for 30 min at room temperature in the dark then the tissue preparation is mounted in the presence of the dye between a coverglass and the slide.

[2] = test system: free-living ciliate and flagellate protozoans; test: Staining of protozoa (Example 7); format: cell-based; details: 1 μL of 10 mM dye in 1 mL culture, 10 min, ambient temperature
Experimental: 1 μL of 10 mM the 5-DAPP/LIVE dye stock is added to 1 mL of protozoan culture. The medium is incubated for 10 min at ambient temperature. 15 μL of this preparation is mounted with dye between a coverglass and the slide. Using this procedure, the nuclei of most cells of the free-living ciliate and flagellate protozoans are stained under these conditions.

sea urchin sperm = test: Staining of sea urchin sperm (Example 8); format: cell-based; details: 2 μM dye, 5 min, room temperature
Experimental: Sperm cells are released from sea urchins by injection of KCl and the cells are concentrated by low speed centrifugation and suspended in 1 mL artificial seawater (ASW) at room temperature. Sufficient 10 mM dye stock solution is added to the sperm suspension to obtain a final dye concentration of 2 μM. The sperm are labeled by incubation in the dye solution for 5 min at room temperature. The sperm are washed by centrifugation at 2000 rpm for 1 min and then resuspended in 1 mL ASW before mounting and observation.

[3] = test system: 3T3 mouse fibroblast cells; test: Pulse-chase staining of lysosomal compartments in cultured mammalian cells (Example 10); format: cell-based
Experimental: 3T3 mouse fibroblast cells are grown on coverslips in calf serum-supplemented DMEM medium. The coverslips of cells are washed using the HBSS+, then hexidium solutions are prepared to final concentrations of 2 μM and 0.2 μM in HBSS+. The cells are incubated in the dye-containing medium for 2 min at room temperature then they are washed in HBSS +and viewed by epifluorescence microscopy using a long-pass fluorescein or a rhodamine filter set.

[4] = test system: peripheral blood lymphocytes; test: Staining of peripheral blood lymphocytes, fluorometer (Example 11); format: cell-based, goat; details: on the scale of seconds
Experimental: Peripheral blood lymphocytes (PBL) are isolated from fresh heparinized goat blood and resuspended in buffer consisting of 135 mM NaCl, 5 mM KCl, 20 mM HEPES, 1 mM CaCl2, 1 mM MgCl2, pH 7.4 (HBSS+). The cells are resuspended to 10^6 mL (as determined by direct microscopic count using a standard hemocytometer) in a final volume of 3 mL in the above buffer in a quartz cuvette. 5-DAPP/LIVE dye stocks are prepared to final concentrations of 2 mM in DMSO. 3 μL of the octidium dye stock solution is injected into the cuvette to a final concentration of 2 μM. In a fluorometer, the sample is excited at 520 nm and fluorescence emission is monitored at 600 nm over the time required for the fluorescence signal to become stable. Hexidium, butidium and ethidium bromide are injected into separate samples of PBL to determine the relative rates of uptake for these stains. The volume of dye solution added to the cuvette is corrected by a factor relating the absorbance of the dye to the absorbance of a 2 mM octidium solution.

[5] = test system: rainbow trout gonad cells (RTG-2); test: Staining followed by fixation (Example 13); format: cell-based; details: 1 μM, 30 min, room temperature
Experimental: Adherent rainbow trout gonad cells (RTG-2) are grown at 20° C. until about 25% confluent. The cells are labeled by incubation in HBSS- containing 1 μM hexidium at room temperature for 30 min. The cells are subsequently washed free of hexidium with HBSS-, followed by phosphate-buffered saline, pH 7.4 (PBS), and fixed in 2% formaldehyde in PBS for 15 min at room temperature. Cell nuclei and cytoplasmic fluorescence are observed in the fluorescence microscope using fluorescein long-pass or rhodamine filter sets.

living cells = test: Entry into / staining of living cells, general; format: cell-based; details: general summary
tissue culture cells = test: Entry into / staining pattern of tissue culture cells; format: cell-based
Description: In some tissue culture cells, the pattern of staining is different from that observed in plant cells or bacteria. In the former case, cells are usually loaded with a brief pulse of dye, followed by a chase of buffered saline solution. These cells show a pattern of staining first in numerous intracellular compartments; e.g. lysosomes. In addition to staining these organelles first, the dyes also undergo a spectral shift to shorter wavelengths when associated with this "early-labeled compartment." If the same cells are exposed to pulses of higher concentrations of the 5-DAPP/LIVE dyes, the staining appears in the mitochondria (tubular structures that are labeled with rhodamine 123) and then, finally, in the nucleus, where it stains the nucleoli very brightly. Nucleoli are the most prominently stained area of higher eukaryotic cells, while the nuclei and cytosol usually stain in a hazy or punctate pattern in these cells. […] In plant tissues distinct nuclei tend to label uniformly, but there is frequently significant binding of the dye to cell walls. The plant cells are usually dark except for cell walls and nuclei. The characteristic binding morphology obtained using the 5-DAPP/LIVE dyes thus makes them useful in certain circumstances for identifying the type of cell in a mixed population of cells.

gram-positive bacteria = details: mild conditions; application Ser. No. 08/047,683; cited from earlier work
gram-negative bacteria = details: mild conditions; application Ser. No. 08/047,683; cited from earlier work

Structure (SMILES): CCCCCC[n+]1c(-c2ccccc2)c2cc(N)ccc2c2ccc(N)cc21 [hexidium]
- staining of spores (in words) (mushroom spores): stains all spores brightly; also recorded: stained most effectively
- staining distribution and intensity (Saccharomyces): less of a hazy cytoplasmic stain and more distinct nuclei
- cell wall / surface staining [1]: more hazy surface staining occurs with ethidium and butidium than with hexidium or octidium
- staining of nuclei of protozoans [2]: slightly better than octidium
- effect on motility of the sperm or ability to fertilize a sea urchin egg (sea urchin sperm): no apparent effect
- staining of sperm nuclei (sea urchin sperm): sperm nuclei stain brightly
- labeling after brief pulse-chase loading ([3]; 0.2 μM, 2 min, room temperature): labeling of punctate structures in the cell cytoplasm; also recorded: green
- labeling after brief loading ([3]; 2 μM, 2 min, room temperature): additional organellar staining, which is apparently mitochondrial
- effect of chloroquine preincubation on staining ([3]; 300 μM chloroquine): reduces the amount of cytoplasmic staining
- staining of nuclei ([3]; under both conditions (0.2 and 2 μM)): stained slightly, but only in the nucleolar regions
- distribution of dye into nucleus of lymphocytes [4]: virtually instantaneous
- difference between live loaded cells and cells fixed with 2% formaldehyde [5]: essentially no difference
- membrane permeability (living cells): marked enhancement of membrane permeability in all systems
- entry into / staining of live cells (living cells; several types of cells): enters many types of live cells quickly and is bright
- staining of cells loaded to equilibrium / staining pattern (tissue culture cells): both intense cytoplasmic and nuclear staining
- staining of live gram-positive bacteria (gram-positive bacteria): significantly greater
- staining of live gram-negative bacteria (gram-negative bacteria): lightly stain some gram negative organisms
